According to PMC9520760 (ACS Omega, 2022):

How the values were obtained:
MCF-7 cells = experiment: MTT cell proliferation assay, MCF-7; format: cell-based, human; settings: for IC50: Homo sapiens, MCF7, 48 h, read-out: IC50 (Mean ± SEM) MCF-7; for antiproliferative activity against MCF-7: MTT assay
MDA-MB-231 cells = experiment: MTT cell proliferation assay, MDA-MB-231; format: cell-based, human; settings: for IC50: Homo sapiens, MDA-MB-231, 48 h, read-out: IC50 (Mean ± SEM) MDA-MB-231; for antiproliferative activity against MDA-MB-231: MTT assay
HeLa cells = experiment: MTT cell proliferation assay, HeLa; format: cell-based, human; settings: for IC50: Homo sapiens, HeLa, 48 h, read-out: IC50 (Mean ± SEM) HeLa; for antiproliferative activity against HeLa: MTT assay
PC-3 cells = experiment: MTT cell proliferation assay, PC-3; format: cell-based; settings: Homo sapiens, PC-3, 48 h, read-out: IC50 (Mean ± SEM) PC-3
Ishikawa cell line = experiment: MTT cell proliferation assay, Ishikawa; format: cell-based, human; settings: for IC50: Homo sapiens, Ishikawa, 48 h, read-out: IC50 (Mean ± SEM) Ishikawa
HEK-293 cells = experiment: MTT toxicity in normal cell line HEK-293; format: cell-based; settings: Homo sapiens, HEK293, 48 h, read-out: IC50 (Mean ± SEM) HEK-293
[1] = system: various cancer cell lines; experiment: MTT assay, panel of cancer cell lines; format: cell-based; settings: Homo sapiens, read-out: IC50 against various cancer cell lines

Row | SMILES | IC50 (MCF-7 cells) [µM] | antiproliferative activity against MCF-7 (MCF-7 cells) | IC50 (MDA-MB-231 cells) [µM] | antiproliferative activity against MDA-MB-231 (MDA-MB-231 cells) | IC50 (HeLa cells) [µM] | antiproliferative activity against HeLa (HeLa cells) | IC50 (PC-3 cells) [µM] | IC50 (Ishikawa cell line) [µM] | IC50 (HEK-293 cells) [µM] | antiproliferative activity against Ishikawa (Ishikawa cell line; MTT assay) | IC50 [1] [µM]
1 | Cc1nn(-c2ccccc2)c(O)c1C(c1ccccc1)c1c(C)nn(-c2ccccc2)c1O [3a] | 35.1 ± 1.38 | weak inhibition | 30.8 ± 1.49 | weak inhibition | 30.7 ± 1.38 | weak inhibition | > 40 | 30.2 ± 2.12 | > 40 |  | 
2 | Cc1nn(-c2ccccc2)c(O)c1C(c1ccc(Cl)cc1)c1c(C)nn(-c2ccccc2)c1O [3c] | 16.3 ± 0.62 | good inhibition | 22.4 ± 1.34 | mild inhibition | 32.4 ± 1.62 | weak antiproliferative activity | > 40 | 36.9 ± 1.38 | > 40 | weak antiproliferative activity | 5.45 to 18.3
